Key:
Test in all cases: Cell proliferation assay (MTS)
HUH7 = assay type: cell-based, human
Method: (§1) The sensitivity of a panel of human cancer cell lines to the effects of compounds was determined in a standard proliferation assay.
(§2) Cells were plated in 96 well plates at densities of 1000-6000 cells per well in RPMI media containing 10% FBS. After incubation at 37° C. for 16 hours, various concentrations of compound were added to the assay plates. After incubation for an additional 72 h, the viable cells were determined by the addition of MTS reagent (Promega #3582) to each well for 2 h. MTS is a tetrazolium salt that is bioreduced by metabolically active cells in the presence of an electron coupling reagent to formazan. The formazan product was then quantitated by absorbance at 490 nm, as an indicator of the relative number of live cells. In order to determine the GI50 (concentration at which growth of cells was inhibited by 50%) the relative number of cells present at the time of drug addition was determined by comparison with the MTS readout before the drug was added, and this value was subtracted from the 72 hr value of untreated cells as a measure of cell growth during the assay.

HUH1 = test system: HUH1
Method: as §1
(§3) Cells were plated in 96 well plates at densities of 1000-6000 cells per well in RPMI media containing 10% FBS. After incubation at 37° C. for 16 hours, various concentrations of compound were added to the assay plates. After incubation for an additional 72 h, the viable cells were determined by the addition of MTS reagent (Promega #3582) to each well for 2 h. […] The formazan product was then quantitated by absorbance at 490 nm, as an indicator of the relative number of live cells. In order to determine the GI50 (concentration at which growth of cells was inhibited by 50%) the relative number of cells present at the time of drug addition was determined by comparison with the MTS readout before the drug was added, and this value was subtracted from the 72 hr value of untreated cells as a measure of cell growth during the assay.

UMUC3 = assay type: cell-based, human
Method: as §1, §2

DMS114 = assay type: cell-based, human
Method: (§4) The sensitivity of a panel of human cancer cell lines to the effects of compounds was determined in a standard proliferation assay. Cell lines were sourced through the AstraZeneca Cell Bank.
as §2

SNU878 = assay type: cell-based, human
Method: as §1, §2

BXPC3 = assay type: cell-based, human
Method: as §1, §3

SW1710 = assay type: cell-based, human
Method: as §1, §3

PANC1 = assay type: cell-based, human
Method: as §1, §3

HCA7 = assay type: cell-based, human
Method: as §1, §3

HCT8 = assay type: cell-based, human
Method: as §4, §2

KP4 = assay type: cell-based, human
Method: as §4, §2

[1] = Homo sapiens, Bladder, PIK3CA WT

For `CCn1nc(C2CCN(C(=O)CCO)CC2)nc1-c1cnc(N)c(-c2nnc(C(C)(C)C)o2)n1` [Example 3, 1-(4-(5-(5-amino-6-(5-tert-butyl-1,3,4-oxadiazol-2-yl)pyrazin-2-yl)-1-ethyl-1H-1,2,4-triazol-3-yl)piperidin-1-yl)-3-hydroxypropan-1-one], the Category (HUH7) was “Resistant (resistant (GI50>1.0 μM))”, the GI50 (HUH7; Homo sapiens, Huh-7, Liver, PIK3CA WT) was 16 µM and the Category (HUH1; HUH1) was “Resistant (resistant (GI50>1.0 μM))”. The GI50 (HUH1; Homo sapiens, HuH-1) was 22.3 µM, the Category (UMUC3) was “Resistant (resistant (GI50>1.0 μM))” and the GI50 (UMUC3; [1]) was 6.22 µM. For the same compound, the Category (DMS114) was “Resistant (resistant (GI50>1.0 μM))”, the GI50 (DMS114; Homo sapiens, DMS-114, Lung, PIK3CA WT) was 3.29 µM and the Category (SNU878) was “Resistant (resistant (GI50>1.0 μM))”. For the same compound, the GI50 (SNU878; Homo sapiens, Liver, PIK3CA WT) was 16.1 µM, the Category (BXPC3) was “Resistant (resistant (GI50>1.0 μM))” and the GI50 (BXPC3; Homo sapiens, BXPC-3, Pancreas, PIK3CA WT) was 14.1 µM. For the same compound, the Category (SW1710) was “Resistant (resistant (GI50>1.0 μM))”, the GI50 (SW1710; [1]) was 5.34 µM and the Category (PANC1) was “Resistant (resistant (GI50>1.0 μM))”. The GI50 (PANC1; Homo sapiens, PANC-1, Pancreas, PIK3CA WT) was 5.34 µM, the Category (HCA7) was “Resistant (resistant (GI50>1.0 μM))” and the GI50 (HCA7; Homo sapiens, HCA-7, Colon, PIK3CA WT) was 15.5 µM. For the same compound, the Category (HCT8) was “Resistant (resistant (GI50>1.0 μM))”, the GI50 (HCT8; Homo sapiens, HCT-8, Colon, PIK3CA MUT) was 2.51 µM and the Category (KP4) was “Resistant (resistant (GI50>1.0 μM))”. It also gave a GI50 (KP4; Homo sapiens, KP-4, Pancreas, PIK3CA WT) of 15.1 µM.
